Measured values taken from PMC7801115, “Preclinical in vitro screening of newly synthesised amidino substituted benzimidazoles and benzothiazoles” (Journal of Enzyme Inhibition and Medicinal Chemistry, 2021).

Tests used:
[1] = Chromatographic lipophilicity study (Chrom logD7.4); assay type: physicochemical; conditions: gradient reverse-phase HPLC (Phenomenex Luna C18 column); pH 7.4, gradient reverse-phase HPLC, from CHI7.4
Description: In order to determine the lipophilicity range, Chromatographic Hydrophobicity Index was measured by gradient reverse-phase HPLC at physiological pH. Sample working solutions were prepared from 10 mM DMSO stock solutions by dilution with acetonitrile to a final concentration of 1.25 mM and analysed on Agilent 1100 Series liquid chromatography system with HPLC diode-array detector (DAD) coupled with Micromass Quattro micro API mass spectrometer. Samples were injected onto an HPLC column (Phenomenex Luna C18, 50 × 3 mm, 5 µm) and eluted with a gradient at room temperature (sample temperature 15 °C). The mobile phase was composed of 50 mM Ammonium acetate, pH = 7.4 and acetonitrille. A total run time was 5 min, with the flow rate of 1 ml/min (under gradient conditions). The HPLC system was initially calibrated using the calibration set of 10 compounds with literature CHI values. The experimentally determined gradient retention times were plotted against the CHI7.4 values published in the literature resulting in the equation obtained from linear regression analysis. This equation was further used for the calculation of CHI7.4 for test compounds from determined retention times of the main chromatographic peak from UV chromatogram for each compound. The obtained CHI7.4 values were further converted to Chrom log D7.4 as follows: CHI7.4 × 0.0857 − 2.

A549 [2] = assay: MTS cell viability (cytotoxicity) assay, 2D cell culture; assay type: cell-based; conditions: Homo sapiens, A549, 2D cell culture, 72 h, ±SD, N = 2, read-out: IC50 antitumor activity A549 2D
Description: (§1) Compounds are diluted 1:3. 500 nL (for 2 D cell culture) or 400 nL (for 3 D cell culture) of compound were transferred from mother plate to test plate by using Mosquito (TTP labtech). DMSO percentage in test concentrations was 0.5 − 1.0%. Starting concentration of the test compounds and standard compound doxorubicin was 50 µM (2 D cell culture) or 100 µM (3 D cell culture).
(§2) Cells were grown in 96 well cell star polystyrene plates. 10,000 cells/well were seeded in wells 4 h prior the treatment with different compounds concentrations and incubated for 72 h. A cell viability assay was performed according to the manufacturer’s instruction, using CellTiter 96 aqueous solution, MTS kit (Promega, Madison, WI, USA). After 0.5–2 h of cell incubation with MTS in 2 D cell culture, the plates were read using PE EnVision absorbance at 490 nm. […] Since we prefer homogeneous assays (mix and read procedures) and therefore MTS is more practical (one step less than MTT). MTS is more sensitive and accurate in comparison with MTT assay.
(§3) Calculation of IC50 data, curves and QC analysis is made by using Excel tools and GraphPadPrism software (La Jolla, CA), v. […] QC criteria parameters (Z', S:B, R2, HillSlope) were checked for every IC50 curve.

NCI-H358 [3] = assay: as above; assay type: cell-based; conditions: Homo sapiens; NCI-H358, 2D cell culture, 72 h, MTS; ±SD, N = 2; read-out: IC50 antitumor activity NCI-H358 2D
Description: as §1, §2, §3

HCC827 [4] = assay: as above; assay type: cell-based; conditions: Homo sapiens; HCC827, 2D cell culture, 72 h, MTS; ±SD, N = 2; read-out: IC50 antitumor activity HCC827 2D
Description: as §1, §2, §3

Kinetic solubility = assay type: physicochemical; conditions: aqueous buffer, kinetic from dmso stock, phosphate buffer 50 mM, pH 7.4, 1% DMSO, 37 °C
Description: Test compounds and assay controls (sulfaphenazole and α-naphtoflavone) were serially diluted in DMSO by factor 3.3x, 3x, 3.3x and 3x, resulting in a total of 5 different concentrations. Phosphate buffer (50 mM, pH 7.4) was spiked with diluted test compounds and controls with final concentration range in the assay as follows: 100, 30, 10, 3 and 1 µM (1% DMSO). Plate was then incubated by gentle shaking (200–300 rpm) for 1 h and 45 min at 37 °C. After additional15 min on room temperature (without shaking), plate absorbance at 620 nm was measured with microplate reader Tecan, Infinite F500 (total incubation time = 2 h).

HCC827 [5] = assay: BrdU proliferation assay, 3D cell culture; assay type: cell-based; conditions: Homo sapiens, HCC827, 3D cell culture, ±SD, N = 2
Description: (§4) Cells were grown in 96 well Perfecta 3 D hanging drop plates 5000 cell/well for 4 days until spheres were formed (and checked under the microscope). After sphere formation cells were treated with compounds followed by 72 h incubation. Cell viability assay was performed according to the manufacturer’s instruction, using CellTiter GLO 3 D for 3 D cell culture (Promega); cell incubation was 5 min on the shaker followed by 25 min incubation in the dark. Plates were read using PE EnVision luminescence.
(§5) Proliferation assay was performed using Cell Proliferation ELISA, BrdU (Sigma, St. Louis, MO, USA). Briefly, 48 h hours after compound addition, 10 µM of BrdU was added to each well and incubated for following 24 h. After incubation, single cell suspension was made for 3 D cell culture in the new 96 well plate. Plates were centrifuged and supernatants were removed from each plate (for 2 D and 3 D cell culture) followed by 60 min incubation at 60° C. The rest of the proliferation assay was performed according to the manufacturer instructions.
as §3

A549 [6] = assay: Cell viability assay, 3D hanging drop cell culture (CellTiter GLO 3D); assay type: cell-based; conditions: Homo sapiens; A549, 3D hanging drop cell culture, 72 h; ±SD, N = 2; read-out: IC50 antitumor activity A549 3D
Description: as §1, §4, §3

NCI-H358 [7] = assay: as above; assay type: cell-based; conditions: Homo sapiens; NCI-H358, 3D hanging drop cell culture, 72 h; ±SD, N = 2; read-out: IC50 antitumor activity NCI-H358 3D
Description: as §1, §4, §3

HCC827 [8] = assay: as above; assay type: cell-based; conditions: Homo sapiens; HCC827, 3D hanging drop cell culture, 72 h; ±SD, N = 2; read-out: IC50 antitumor activity HCC827 3D
Description: as §1, §4, §3

A549 [9] = assay: BrdU proliferation assay, 2D cell culture; assay type: cell-based; conditions: Homo sapiens, A549, 2D cell culture, ±SD, N = 2
Description: Cells were grown in 96 well cell star polystyrene plates. 10,000 cells/well were seeded in wells 4 h prior the treatment with different compounds concentrations and incubated for 72 h. A cell viability assay was performed according to the manufacturer’s instruction, using CellTiter 96 aqueous solution, MTS kit (Promega, Madison, WI, USA). After 0.5–2 h of cell incubation with MTS in 2 D cell culture, the plates were read using PE EnVision absorbance at 490 nm. The results for each of tested compounds are reported as growth percentages from two independent concentrations curves compared with the untreated control cells after drug exposure. Since we prefer homogeneous assays (mix and read procedures) and therefore MTS is more practical (one step less than MTT). MTS is more sensitive and accurate in comparison with MTT assay.
as §5
Calculation of IC50 data, curves and QC analysis is made by using Excel tools and GraphPadPrism software (La Jolla, CA), v. 5.03. In brief, individual concentration–effect curves are generated by plotting the logarithm of the tested concentration of tested compounds (X) versus corresponding percent inhibition values (Y) using least squares (ordinary) fit. […] QC criteria parameters (Z', S:B, R2, HillSlope) were checked for every IC50 curve.

Question: For c1ccc(-c2nc3cc(C4=NCCCN4)ccc3[nH]2)cc1 [Compound 6a, 2-Phenyl-5(6)–(3,4,5,6-tetrahydropyrimidin-1-ium-2-yl)benzimidazole chloride], which chromatographic logD [1] is on record?
Answer: The chromatographic logD was 0.92.

Question: And the IC50 (A549 [2])?
Answer: Its IC50 is 15 ± 1.7 µM.

Question: What about the IC50 (NCI-H358 [3]) of the same compound?
Answer: Its IC50 is 13 ± 0.28 µM.

Question: And the IC50 (HCC827 [4])?
Answer: Its IC50 is 6 ± 0.5 µM.

Question: And the solubility kinetic at 2 h (Kinetic solubility)?
Answer: The solubility kinetic at 2 h was over 100 µM.

Question: And the IC50 (HCC827 [5])?
Answer: Its IC50 is 12 ± 0.25 µM.

Question: And the IC50 (A549 [6])?
Answer: Its IC50 is 13 ± 1.46 µM.

Question: And the IC50 (NCI-H358 [7])?
Answer: Its IC50 is 17 ± 1.94 µM.

Question: What about the IC50 (HCC827 [8]) of the same compound?
Answer: The IC50 was 9 ± 3.05 µM.

Question: What about the IC50 (A549 [9]) of the same compound?
Answer: Its IC50 is 11 ± 5.56 µM.

Question: With N#Cc1ccc(-c2nc3cc(C4=NCCCN4)ccc3[nH]2)cc1 [Compound 6b, 2–(4-Cyanophenyl)-5(6)–(3,4,5,6-tetrahydropyrimidin-1-ium-2-yl)benzimidazole chloride] as the compound, how does the chromatographic logD [1] read?
Answer: The chromatographic logD was 1.17.

Question: And the IC50 (A549 [2])?
Answer: Its IC50 is over 50 µM.

Question: What about the IC50 (NCI-H358 [3]) of the same compound?
Answer: Its IC50 is over 50 µM.

Question: And the IC50 (HCC827 [4])?
Answer: Its IC50 is over 50 µM.

Question: What about the solubility kinetic at 2 h (Kinetic solubility) of the same compound?
Answer: The solubility kinetic at 2 h was over 100 µM.

Question: What about the IC50 (HCC827 [5]) of the same compound?
Answer: The IC50 was over 100 µM.

Question: What about the IC50 (A549 [6]) of the same compound?
Answer: Its IC50 is over 100 µM.

Question: And the IC50 (NCI-H358 [7])?
Answer: The IC50 was over 100 µM.

Question: What about the IC50 (HCC827 [8]) of the same compound?
Answer: The IC50 was over 100 µM.

Question: What about the IC50 (A549 [9]) of the same compound?
Answer: Its IC50 is over 50 µM.
